Columns and labels:
Experiment in all cases: relative viability (nuclei count vs DMSO), 5 days (fraction); higher = more cells survive
Erlotinib + Luminespib = compound: C#Cc1cccc(Nc2ncnc3cc(OCCOC)c(OCCOC)cc23)c1 [Erlotinib] + CCNC(=O)c1noc(-c2cc(C(C)C)c(O)cc2O)c1-c1ccc(CN2CCOCC2)cc1 [Luminespib] (partner 0.01 µM)
How it was run: (§1)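 Dosing by pin tool came one day after lung cancer cell lines were seeded in 1536-well plates, using either one drug or a fixed anchor-drug dose plus five library-drug doses (not always all listed) in √10 steps. After 5 days, nuclei were counted on 4× images. Relative viability is treated-well nuclei count divided by vehicle-well nuclei count, and values are medians of duplicate plates.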

AT9283 + Pemetrexed = compound: O=C(Nc1c[nH]nc1-c1nc2ccc(CN3CCOCC3)cc2[nH]1)NC1CC1 [AT9283] + Nc1nc2[nH]cc(CCc3ccc(C(=O)N[C@@H](CCC(=O)O)C(=O)O)cc3)c2c(=O)[nH]1 [Pemetrexed] (partner 0.2 µM)
How it was run: as §1

Erlotinib + Phenformin = compound: C#Cc1cccc(Nc2ncnc3cc(OCCOC)c(OCCOC)cc23)c1 [Erlotinib] + N=C(N)NC(=N)NCCc1ccccc1 [Phenformin] (partner 250 µM)
How it was run: as §1

AT9283 + Phenformin = compound: O=C(Nc1c[nH]nc1-c1nc2ccc(CN3CCOCC3)cc2[nH]1)NC1CC1 [AT9283] + N=C(N)NC(=N)NCCc1ccccc1 [Phenformin] (partner 250 µM)
How it was run: as §1

AT9283 + OSI-027 = compound: O=C(Nc1c[nH]nc1-c1nc2ccc(CN3CCOCC3)cc2[nH]1)NC1CC1 [AT9283] + COc1cccc2cc(-c3nc([C@H]4CC[C@H](C(=O)O)CC4)n4ncnc(N)c34)[nH]c12 [OSI-027] (partner 0.5 µM)
How it was run: as §1

For NCI-H1734, the relative viability (Erlotinib + Luminespib; first compound 0.02 µM) was 0.202, the relative viability (Erlotinib + Luminespib; first compound 0.2 µM) was 0.212 and the relative viability (Erlotinib + Luminespib; first compound 0.6325 µM) was 0.194. For the same cell line, the relative viability (Erlotinib + Luminespib; first compound 2 µM) was 0.197, the relative viability (AT9283 + Pemetrexed; first compound 0.003 µM) was 0.384 and the relative viability (AT9283 + Pemetrexed; first compound 0.03 µM) was 0.404. For the same cell line, the relative viability (AT9283 + Pemetrexed; first compound 0.09487 µM) was 0.326, the relative viability (AT9283 + Pemetrexed; first compound 0.3 µM) was 0.228 and the relative viability (Erlotinib + Phenformin; first compound 0.02 µM) was 0.4. It also gave a relative viability (Erlotinib + Phenformin; first compound 0.2 µM) of 0.378, a relative viability (Erlotinib + Phenformin; first compound 0.6325 µM) of 0.391 and a relative viability (Erlotinib + Phenformin; first compound 2 µM) of 0.359. For the same cell line, the relative viability (AT9283 + Phenformin; first compound 0.003 µM) was 0.334, the relative viability (AT9283 + Phenformin; first compound 0.03 µM) was 0.278 and the relative viability (AT9283 + Phenformin; first compound 0.09487 µM) was 0.243. For the same cell line, the relative viability (AT9283 + Phenformin; first compound 0.3 µM) was 0.203, the relative viability (AT9283 + OSI-027; first compound 0.003 µM) was 0.634 and the relative viability (AT9283 + OSI-027; first compound 0.03 µM) was 0.331. For the same cell line, the relative viability (AT9283 + OSI-027; first compound 0.09487 µM) was 0.237 and the relative viability (AT9283 + OSI-027; first compound 0.3 µM) was 0.201.

For NCI-H1437, the relative viability (Erlotinib + Luminespib; first compound 0.02 µM) was 1.15, the relative viability (Erlotinib + Luminespib; first compound 0.2 µM) was 1.18 and the relative viability (Erlotinib + Luminespib; first compound 0.6325 µM) was 1.1. It also gave a relative viability (Erlotinib + Luminespib; first compound 2 µM) of 1.03, a relative viability (AT9283 + Pemetrexed; first compound 0.003 µM) of 0.306 and a relative viability (AT9283 + Pemetrexed; first compound 0.03 µM) of 0.298. It also gave a relative viability (AT9283 + Pemetrexed; first compound 0.09487 µM) of 0.264, a relative viability (AT9283 + Pemetrexed; first compound 0.3 µM) of 0.225 and a relative viability (Erlotinib + Phenformin; first compound 0.02 µM) of 0.352. The relative viability (Erlotinib + Phenformin; first compound 0.2 µM) was 0.301, the relative viability (Erlotinib + Phenformin; first compound 0.6325 µM) was 0.286 and the relative viability (Erlotinib + Phenformin; first compound 2 µM) was 0.286. For the same cell line, the relative viability (AT9283 + Phenformin; first compound 0.003 µM) was 0.294, the relative viability (AT9283 + Phenformin; first compound 0.03 µM) was 0.263 and the relative viability (AT9283 + Phenformin; first compound 0.09487 µM) was 0.149. The relative viability (AT9283 + Phenformin; first compound 0.3 µM) was 0.127, the relative viability (AT9283 + OSI-027; first compound 0.003 µM) was 0.933 and the relative viability (AT9283 + OSI-027; first compound 0.03 µM) was 0.848. For the same cell line, the relative viability (AT9283 + OSI-027; first compound 0.09487 µM) was 0.669 and the relative viability (AT9283 + OSI-027; first compound 0.3 µM) was 0.206.

Cell Line NCI-H661 has a relative viability (Erlotinib + Luminespib; first compound 0.02 µM) of 0.903, a relative viability (Erlotinib + Luminespib; first compound 0.2 µM) of 0.933 and a relative viability (Erlotinib + Luminespib; first compound 0.6325 µM) of 0.882. The relative viability (Erlotinib + Luminespib; first compound 2 µM) was 0.736, the relative viability (AT9283 + Pemetrexed; first compound 0.003 µM) was 0.932 and the relative viability (AT9283 + Pemetrexed; first compound 0.03 µM) was 0.449. For the same cell line, the relative viability (AT9283 + Pemetrexed; first compound 0.09487 µM) was 0.405, the relative viability (AT9283 + Pemetrexed; first compound 0.3 µM) was 0.385 and the relative viability (Erlotinib + Phenformin; first compound 0.02 µM) was 0.301. It also gave a relative viability (Erlotinib + Phenformin; first compound 0.2 µM) of 0.264, a relative viability (Erlotinib + Phenformin; first compound 0.6325 µM) of 0.269 and a relative viability (Erlotinib + Phenformin; first compound 2 µM) of 0.318. The relative viability (AT9283 + Phenformin; first compound 0.003 µM) was 0.276, the relative viability (AT9283 + Phenformin; first compound 0.03 µM) was 0.269 and the relative viability (AT9283 + Phenformin; first compound 0.09487 µM) was 0.252. For the same cell line, the relative viability (AT9283 + Phenformin; first compound 0.3 µM) was 0.236, the relative viability (AT9283 + OSI-027; first compound 0.003 µM) was 0.767 and the relative viability (AT9283 + OSI-027; first compound 0.03 µM) was 0.529. It also gave a relative viability (AT9283 + OSI-027; first compound 0.09487 µM) of 0.313 and a relative viability (AT9283 + OSI-027; first compound 0.3 µM) of 0.344.

NCI-H1651 showed a relative viability (Erlotinib + Luminespib; first compound 0.02 µM) of 0.883, a relative viability (Erlotinib + Luminespib; first compound 0.2 µM) of 0.837 and a relative viability (Erlotinib + Luminespib; first compound 0.6325 µM) of 0.817. The relative viability (Erlotinib + Luminespib; first compound 2 µM) was 0.746, the relative viability (AT9283 + Pemetrexed; first compound 0.003 µM) was 0.48 and the relative viability (AT9283 + Pemetrexed; first compound 0.03 µM) was 0.506. For the same cell line, the relative viability (AT9283 + Pemetrexed; first compound 0.09487 µM) was 0.528, the relative viability (AT9283 + Pemetrexed; first compound 0.3 µM) was 0.378 and the relative viability (Erlotinib + Phenformin; first compound 0.02 µM) was 0.336. For the same cell line, the relative viability (Erlotinib + Phenformin; first compound 0.2 µM) was 0.316, the relative viability (Erlotinib + Phenformin; first compound 0.6325 µM) was 0.288 and the relative viability (Erlotinib + Phenformin; first compound 2 µM) was 0.259. The relative viability (AT9283 + Phenformin; first compound 0.003 µM) was 0.293, the relative viability (AT9283 + Phenformin; first compound 0.03 µM) was 0.358 and the relative viability (AT9283 + Phenformin; first compound 0.09487 µM) was 0.277. For the same cell line, the relative viability (AT9283 + Phenformin; first compound 0.3 µM) was 0.219, the relative viability (AT9283 + OSI-027; first compound 0.003 µM) was 0.753 and the relative viability (AT9283 + OSI-027; first compound 0.03 µM) was 0.714. For the same cell line, the relative viability (AT9283 + OSI-027; first compound 0.09487 µM) was 0.568 and the relative viability (AT9283 + OSI-027; first compound 0.3 µM) was 0.334.

With NCI-H2342 the relative viability (Erlotinib + Luminespib; first compound 0.02 µM) was 0.731, the relative viability (Erlotinib + Luminespib; first compound 0.2 µM) was 0.609 and the relative viability (Erlotinib + Luminespib; first compound 0.6325 µM) was 0.573. It also gave a relative viability (Erlotinib + Luminespib; first compound 2 µM) of 0.739, a relative viability (AT9283 + Pemetrexed; first compound 0.003 µM) of 0.793 and a relative viability (AT9283 + Pemetrexed; first compound 0.03 µM) of 0.619. The relative viability (AT9283 + Pemetrexed; first compound 0.09487 µM) was 0.603, the relative viability (AT9283 + Pemetrexed; first compound 0.3 µM) was 0.387 and the relative viability (Erlotinib + Phenformin; first compound 0.02 µM) was 0.532. The relative viability (Erlotinib + Phenformin; first compound 0.2 µM) was 0.671, the relative viability (Erlotinib + Phenformin; first compound 0.6325 µM) was 0.572 and the relative viability (Erlotinib + Phenformin; first compound 2 µM) was 0.433. It also gave a relative viability (AT9283 + Phenformin; first compound 0.003 µM) of 0.592, a relative viability (AT9283 + Phenformin; first compound 0.03 µM) of 0.423 and a relative viability (AT9283 + Phenformin; first compound 0.09487 µM) of 0.534. The relative viability (AT9283 + Phenformin; first compound 0.3 µM) was 0.341, the relative viability (AT9283 + OSI-027; first compound 0.003 µM) was 0.605 and the relative viability (AT9283 + OSI-027; first compound 0.03 µM) was 0.576. The relative viability (AT9283 + OSI-027; first compound 0.09487 µM) was 0.508 and the relative viability (AT9283 + OSI-027; first compound 0.3 µM) was 0.413.

RERF-LC-KJ was tested, and the relative viability (Erlotinib + Luminespib; first compound 0.02 µM) was 1.32, the relative viability (Erlotinib + Luminespib; first compound 0.2 µM) was 0.993 and the relative viability (Erlotinib + Luminespib; first compound 0.6325 µM) was 1.23. The relative viability (AT9283 + Pemetrexed; first compound 0.003 µM) was 0.465, the relative viability (AT9283 + Pemetrexed; first compound 0.03 µM) was 0.36 and the relative viability (AT9283 + Pemetrexed; first compound 0.09487 µM) was 0.253. The relative viability (AT9283 + Pemetrexed; first compound 0.3 µM) was 0.225, the relative viability (Erlotinib + Phenformin; first compound 0.02 µM) was 0.393 and the relative viability (Erlotinib + Phenformin; first compound 0.2 µM) was 0.372. For the same cell line, the relative viability (Erlotinib + Phenformin; first compound 0.6325 µM) was 0.311, the relative viability (Erlotinib + Phenformin; first compound 2 µM) was 0.337 and the relative viability (AT9283 + Phenformin; first compound 0.003 µM) was 0.408. For the same cell line, the relative viability (AT9283 + Phenformin; first compound 0.03 µM) was 0.364, the relative viability (AT9283 + Phenformin; first compound 0.09487 µM) was 0.25 and the relative viability (AT9283 + Phenformin; first compound 0.3 µM) was 0.242. It also gave a relative viability (AT9283 + OSI-027; first compound 0.003 µM) of 0.609, a relative viability (AT9283 + OSI-027; first compound 0.03 µM) of 0.544 and a relative viability (AT9283 + OSI-027; first compound 0.09487 µM) of 0.308. The relative viability (AT9283 + OSI-027; first compound 0.3 µM) was 0.279.

Work on NCI-H1944 yielded a relative viability (Erlotinib + Luminespib; first compound 0.02 µM) of 0.813, a relative viability (Erlotinib + Luminespib; first compound 0.2 µM) of 0.471 and a relative viability (Erlotinib + Luminespib; first compound 0.6325 µM) of 0.609. The relative viability (Erlotinib + Luminespib; first compound 2 µM) was 0.434, the relative viability (AT9283 + Pemetrexed; first compound 0.003 µM) was 0.627 and the relative viability (AT9283 + Pemetrexed; first compound 0.03 µM) was 0.5. It also gave a relative viability (AT9283 + Pemetrexed; first compound 0.09487 µM) of 0.232, a relative viability (AT9283 + Pemetrexed; first compound 0.3 µM) of 0.191 and a relative viability (Erlotinib + Phenformin; first compound 0.02 µM) of 0.199. It also gave a relative viability (Erlotinib + Phenformin; first compound 0.2 µM) of 0.194, a relative viability (Erlotinib + Phenformin; first compound 0.6325 µM) of 0.198 and a relative viability (Erlotinib + Phenformin; first compound 2 µM) of 0.172. For the same cell line, the relative viability (AT9283 + Phenformin; first compound 0.003 µM) was 0.201, the relative viability (AT9283 + Phenformin; first compound 0.03 µM) was 0.171 and the relative viability (AT9283 + Phenformin; first compound 0.09487 µM) was 0.122. The relative viability (AT9283 + Phenformin; first compound 0.3 µM) was 0.136, the relative viability (AT9283 + OSI-027; first compound 0.003 µM) was 0.391 and the relative viability (AT9283 + OSI-027; first compound 0.03 µM) was 0.291. It also gave a relative viability (AT9283 + OSI-027; first compound 0.09487 µM) of 0.201 and a relative viability (AT9283 + OSI-027; first compound 0.3 µM) of 0.229.

— the supplement of paper PMC10307832
